Laboratory results reported in US11278561B2, “Combination treatment for hematological cancers” (Geron Corporation, priority 2016, dated 2022).

Legend:
[1] = tested on: KG-1 cells; assay: Annexin V / Propidium Iodide flow cytometry apoptosis assay in KG-1; format: cell-based; design: key to Excess over HSA / Excess over BLISS: excess in % apoptotic (Annexin V/PI double-labeled) cells over HSA/Bliss; conditions: for Excess over BLISS / Excess over HSA: imetelstat sodium μM: r7 50, r8 25, r9 10, r10 0
Protocol: AML tumor cells KG-1 (ATCC #CCL-246) and MOLM-13 (DSMZ #ACC554) were plated at a density of ˜20,000 cells per well on 96-well polystyrene U-bottom tissue culture plates (Corning catalog #353777) in RPMI-1640 (ThermoFisher catalog #11875-085) supplemented with 10% fetal bovine serum (ThermoFisher catalog #16140-089) and 1% penicillin/streptomycin antibiotic cocktail (ThermoFisher catalog 15140-122) and grown in a 37° C. incubator under humidified 5% CO2 atmosphere.
At 48 and 96 hours, cells were measured for healthy, early apoptotic and apoptotic populations with an Annexin V (interior cell membrane stain) plus Propidium Iodide (PI, DNA binding dye) flow cytometry assay kit (BioLegend catalog 640914). Annexin V detects the externalization of phosphatidylserine in apoptotic cells using recombinant annexin V conjugated to green-fluorescent FITC dye and dead cells using Propidium iodide (PI). Propidium iodide stains necrotic cells with red fluorescence. After treatment with both probes, early apoptotic cells show green fluorescence, apoptotic (dead) cells show red and green fluorescence, and live cells show little or no fluorescence. […] Cells were stained for 30 minutes at 4° C. in the dark, followed by 3× washes with PBS and suspension in FACs Stain Buffer (BD catalog 554657) prior to interrogation on a BD FACs Canto flow cytometer for forward scatter, side scatter, FITC, and PE channels. […] The percentage of apoptotic cells (double labeled) was used to calculate combination effects using both the Highest Single Agent (HSA) and Bliss additivity models (J Tang et al. Frontiers in Pharmacology. 2015; 6 (181)).
Using the HSA model, the cytotoxic effect of the combined condition (“C”) was compared to the effect generated by each of the single agent controls (“A” or “B”) for the respective dose in the combination: Excess over HSA=C−A (if A>B) or C−B (if A<B)
The Bliss model performs a similar comparison, but instead of the highest effect of single agent, the Bliss model subtracts from the combination a value equal to the sum of each single agent minus their product: Excess over Bliss=C−[(A+B)−(A*B)]

[2] = tested on: telomerase; assay: telomerase activity by qPCR TRAP in KG-1 lysates; format: cell-based, human; conditions: 50 μM imetelstat sodium or 20 nM ABT-199
Protocol: Samples from the previous section for protein analysis were collected as cell pellets by centrifugation at 5 minutes for 1500K for lyses and protein extraction. Protein lysates were analyzed by utilizing a modified method combined from two primary sources (Hou, et al. (2001) 43(3) 519-524 and Nature Protocols (2006) 1 (3) 1583-1590). Lysates were generated by adding 80 μL of a 10 mM Tris-EDTA, 1% NP-40, 10% Glycerol, 150 mM NaCl, 1 mM MgCl2, 250 μM Sodium Deoxycholate, 100 μM AEBSF, 5 mM 2-mercaptoethanol buffer and incubating on ice for 30 minutes. Lysates were centrifuged for 15 minutes at max speed and at 4° C. to pellet cellular debris. Protein yield from clarified lysates were quantified using a BCA assay (ThermoFisher catalog 23252) and subjected to a qPCR TRAP-based assay to determine relative telomerase activity (Power SYBR Green PCR Master Mix—ThermoFisher #4367659) using a ViiA7 Real-Time PCR system from ThermoFisher. In this assay, protein lysates are exposed to synthetic oligonucleotides mimicking telomere sequences in the presence of excess dNTPs and SYBR green dye. The greater the activity of telomerase, the greater extension of the synthetic primers, and therefore greater staining of nucleic acid and signal generated by the SYBR dye. This signal is compared to a standard curve of control protein lysate to determine the relative telomerase activity between samples.

[3] = tested on: MOLM-13 AML disseminated model; assay: MOLM-13 AML disseminated mouse model, survival; format: in vivo; conditions: MOLM-13 implanted SCID-beige mice; imetelstat sodium or MM 30 mg/kg ip TIW x 4 weeks, ABT-199 100 mg/kg po qd x 4 weeks
Protocol: An in vivo study in the MOLM-13 AML disseminated mouse model was conducted to assess efficacy and survival. Specifically, on day 0 of the study, MOLM-13 AML tumor cells were implanted into mice. […] The percent survival of the mice was assessed as a function of time (days post tumor cell implantation). The study lasted for a total of 108 days (77 days after stopping treatment).
Fifty female SCID-beige mice (6-week-old, Jackson Laboratory) were intravenously injected with 1 million MOLM-13 cells and randomly divided into five groups.
Mice were observed daily and body weights were measured twice a week. The survival of mice in each group was followed. The study was terminated on day 108, which was 77 days post last treatment. The increased life span (“ILS”) was evaluated for each group, and the % ILS versus the vehicle control was calculated as: % ILS=100×(T−C)/C where T is the median survival of the treatment group and C is the median survival of the control group.

[4] = tested on: hTERT; assay: hTERT transcription levels by RT-qPCR in MOLM-13; format: cell-based, human; conditions: MOLM-13, 96 hours; 50 μM imetelstat sodium and/or 20 nM ABT-199
Protocol: Samples from cell experiments (and single agent controls) were collected for molecular analyses to assess combination effects contributing to potential mechanisms of action. […] Nucleic acids were purified by first lysing cells with 350 μL of RLT Buffer (Qiagen catalog #1030963) supplemented with 2-mercaptoethanol (Sigma catalog #63689-100ML-F). RNA was purified with the AllPrep RNA/DNA Mini Kit (Qiagen catalog #80204) and reverse transcribed to cDNA using a High Capacity cDNA kit (ThermoFisher catalog #4368814) and pre-amplified prior to analysis with TaqMan PreAmp Master Mix (ThermoFisher catalog #4384557B). Products were analyzed using an in-house developed Taq-Man RT-qPCR assay to measure hTERT transcription levels (TaqMan Universal PCR Master Mix—ThermoFisher catalog #4304437; primer and probe sequences below) using a ViiA7 Real-Time PCR system from ThermoFisher: […]

With CC1(C)CCC(CN2CCN(c3ccc(C(=O)NS(=O)(=O)c4ccc(NCC5CCOCC5)c([N+](=O)[O-])c4)c(Oc4cnc5[nH]ccc5c4)c3)CC2)=C(c2ccc(Cl)cc2)C1 [ABT-199, 4-[4-[[2-(4-chlorophenyl)-4,4-dimethylcyclohexen-1-yl]methyl]piperazin-1-yl]-N-[3-nitro-4-(oxan-4-ylmethylamino)phenyl]sulfonyl-2-(1H-pyrrolo [2,3-b]pyridin-5-yloxy)benzamide] the “Excess over BLISS” value ([1]; KG-1, 48 hours (title of Table 6), ABT-199 1 nM) was 0, the “Excess over BLISS” value ([1]; KG-1, 48 hours (title of Table 6), ABT-199 5 nM) was 0 and the “Excess over BLISS” value ([1]; KG-1, 48 hours (title of Table 6), ABT-199 20 nM) was 0. The “Excess over BLISS” value ([1]; KG-1, 48 hours (title of Table 6), ABT-199 100 nM) was 0, the “Excess over BLISS” value ([1]; KG-1, 48 hours (title of Table 6), ABT-199 500 nM) was 0 and the “Excess over BLISS” value ([1]; KG-1, 48 hours, ABT-199 1 nM) was 0. For the same compound, the “Excess over HSA” value ([1]; KG-1, 48 hours, ABT-199 1 nM) was 0, the “Excess over BLISS” value ([1]; KG-1, 48 hours, ABT-199 5 nM) was 0 and the “Excess over HSA” value ([1]; KG-1, 48 hours, ABT-199 5 nM) was 0. The “Excess over BLISS” value ([1]; KG-1, 48 hours, ABT-199 20 nM) was 0, the “Excess over HSA” value ([1]; KG-1, 48 hours, ABT-199 20 nM) was 0 and the “% apoptotic cells (double label)” value ([1]; KG-1, 48 hours, ABT-199 100 nM) was ~9%. For the same compound, the “Excess over BLISS” value ([1]; KG-1, 48 hours, ABT-199 100 nM) was 0, the “Excess over HSA” value ([1]; KG-1, 48 hours, ABT-199 100 nM) was 0 and the “% apoptotic cells (double label)” value ([1]; KG-1, 48 hours, ABT-199 500 nM) was ~14%. The “Excess over BLISS” value ([1]; KG-1, 48 hours, ABT-199 500 nM) was 0, the “Excess over HSA” value ([1]; KG-1, 48 hours, ABT-199 500 nM) was 0 and the “Excess over HSA” value ([1]; KG-1, 96 hours, ABT-199 1 nM) was 0. The “Excess over HSA” value ([1]; KG-1, 96 hours, ABT-199 5 nM) was 0, the “Excess over HSA” value ([1]; KG-1, 96 hours, ABT-199 20 nM) was 0 and the “% apoptotic cells (double label)” value ([1]; KG-1, 96 hours, ABT-199 100 nM) was ~6%. The “Excess over HSA” value ([1]; KG-1, 96 hours, ABT-199 100 nM) was 0, the “% apoptotic cells (double label)” value ([1]; KG-1, 96 hours, ABT-199 500 nM) was ~10% and the “Excess over HSA” value ([1]; KG-1, 96 hours, ABT-199 500 nM) was 0. For the same compound, the “telomerase activity as compared to control” value ([2]; KG-1, 48 hours) was “no effect”, the “telomerase activity as compared to control” value ([2]; KG-1, 96 hours) was ~80% and the “% ILS (increased life span as compared to vehicle control)” value [3] was 36.3%. The “Median Survival” value [3] was 30 days and the “hTERT RNA expression level, percentage of untreated controls” value [4] was ~69%.
